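Five concentrations, 48 hours, 96-well plates. GI50: concentration for 50% inhibition of growth. The concentration for full growth arrest is given as TGI.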
Legend:
Assay in all cases: DTP human tumour cell line panel, 48 h
786-0 renal = system: 786-0 renal
A498 renal = system: A498 renal
A549 NSCLC = system: A549 NSCLC
ACHN renal = system: ACHN renal
CAKI-1 renal = system: CAKI-1 renal
CCRF-CEM leukemia = system: CCRF-CEM leukemia
COLO 205 colon = system: COLO 205 colon
DU-145 prostate = system: DU-145 prostate
EKVX NSCLC = system: EKVX NSCLC
HCC-2998 colon = system: HCC-2998 colon
HCT-116 colon = system: HCT-116 colon
HCT-15 colon = system: HCT-15 colon
HL-60(TB) leukemia = system: HL-60(TB) leukemia
HOP-62 NSCLC = system: HOP-62 NSCLC
HOP-92 NSCLC = system: HOP-92 NSCLC
HS 578T breast = system: HS 578T breast
HT29 colon = system: HT29 colon
IGROV1 ovarian = system: IGROV1 ovarian
KM12 colon = system: KM12 colon
LOX IMVI melanoma = system: LOX IMVI melanoma
M14 melanoma = system: M14 melanoma
MCF7 breast = system: MCF7 breast
MDA-MB-231 breast = system: MDA-MB-231 breast
MDA-MB-435 = system: MDA-MB-435
MDA-N = system: MDA-N
MOLT-4 leukemia = system: MOLT-4 leukemia
NCI-H226 lung = system: NCI-H226 lung
NCI-H23 lung = system: NCI-H23 lung
NCI-H460 lung = system: NCI-H460 lung
NCI-H522 lung = system: NCI-H522 lung
NCI/ADR-RES ovarian = system: NCI/ADR-RES ovarian
OVCAR-3 ovarian = system: OVCAR-3 ovarian
OVCAR-5 ovarian = system: OVCAR-5 ovarian
OVCAR-8 ovarian = system: OVCAR-8 ovarian
RPMI-8226 leukemia = system: RPMI-8226 leukemia
RXF 393 renal = system: RXF 393 renal
SF-268 CNS = system: SF-268 CNS
SF-295 CNS = system: SF-295 CNS
SF-539 CNS = system: SF-539 CNS
SK-MEL-5 melanoma = system: SK-MEL-5 melanoma
SK-OV-3 ovarian = system: SK-OV-3 ovarian
SN12C renal = system: SN12C renal
SNB-75 CNS = system: SNB-75 CNS
SR leukemia = system: SR leukemia
SW-620 colon = system: SW-620 colon
T-47D breast = system: T-47D breast
TK-10 renal = system: TK-10 renal
U251 CNS = system: U251 CNS
UACC-257 melanoma = system: UACC-257 melanoma
UACC-62 melanoma = system: UACC-62 melanoma
UO-31 renal = system: UO-31 renal
BT-549 breast = system: BT-549 breast
K-562 leukemia = system: K-562 leukemia
MALME-3M melanoma = system: MALME-3M melanoma
OVCAR-4 ovarian = system: OVCAR-4 ovarian
PC-3 prostate = system: PC-3 prostate
SK-MEL-2 melanoma = system: SK-MEL-2 melanoma
SK-MEL-28 melanoma = system: SK-MEL-28 melanoma
SNB-19 CNS = system: SNB-19 CNS

## CCOC(=O)[C@@H]1ON2O[C@@H](OC3CCCC3(c3ccccc3)c3ccccc3)C[C@H]3OC(=O)[C@@H]1C32 (some centres not stated)
786-0 renal
  TGI: 79 µM
A498 renal
  TGI: > 100 µM
A549 NSCLC
  TGI: 57.4 µM
ACHN renal
  TGI: 37 µM
CAKI-1 renal
  TGI: 31.6 µM
CCRF-CEM leukemia
  TGI: 64.8 µM
COLO 205 colon
  TGI: > 100 µM
DU-145 prostate
  TGI: 55.6 µM
EKVX NSCLC
  TGI: > 100 µM
HCC-2998 colon
  TGI: > 100 µM
HCT-116 colon
  TGI: > 100 µM
HCT-15 colon
  TGI: 60.7 µM
HL-60(TB) leukemia
  TGI: 60.9 µM
HOP-62 NSCLC
  TGI: > 100 µM
HOP-92 NSCLC
  TGI: > 100 µM
HS 578T breast
  TGI: > 100 µM
HT29 colon
  TGI: 43.1 µM
IGROV1 ovarian
  TGI: > 100 µM
KM12 colon
  TGI: 29 µM
LOX IMVI melanoma
  TGI: > 100 µM
M14 melanoma
  TGI: 51.9 µM
MCF7 breast
  TGI: 52.1 µM
MDA-MB-231 breast
  TGI: 49 µM
MDA-MB-435
  TGI: 34.2 µM
MDA-N
  TGI: 67.6 µM
MOLT-4 leukemia
  TGI: > 100 µM
NCI-H226 lung
  TGI: > 100 µM
NCI-H23 lung
  TGI: 37.2 µM
NCI-H460 lung
  TGI: > 100 µM
NCI-H522 lung
  TGI: 91.9 µM
NCI/ADR-RES ovarian
  TGI: > 100 µM
OVCAR-3 ovarian
  TGI: 54.1 µM
OVCAR-5 ovarian
  TGI: 78.4 µM
OVCAR-8 ovarian
  TGI: > 100 µM
RPMI-8226 leukemia
  TGI: 90.6 µM
RXF 393 renal
  TGI: 48.2 µM
SF-268 CNS
  TGI: 70.2 µM
SF-295 CNS
  TGI: > 100 µM
SF-539 CNS
  TGI: 68 µM
SK-MEL-5 melanoma
  TGI: > 100 µM
SK-OV-3 ovarian
  TGI: > 100 µM
SN12C renal
  TGI: 80.3 µM
SNB-75 CNS
  TGI: > 100 µM
SR leukemia
  TGI: 61.4 µM
SW-620 colon
  TGI: 64.5 µM
T-47D breast
  TGI: 69.1 µM
TK-10 renal
  TGI: 43.6 µM
U251 CNS
  TGI: > 100 µM
UACC-257 melanoma
  TGI: 50.6 µM
UACC-62 melanoma
  TGI: 42.2 µM
UO-31 renal
  TGI: 41.1 µM

## COc1ccc2c(Oc3ccc(NC(=O)c4c(C)n(CC(C)(C)O)n(-c5ccccc5)c4=O)nc3)ccnc2c1
786-0 renal
  GI50: 22.3 µM
  TGI: > 100 µM
A498 renal
  GI50: 4.41 µM
  TGI: 85.1 µM
A549 NSCLC
  GI50: 20.3 µM
  TGI: > 100 µM
ACHN renal
  GI50: 5.02 µM
  TGI: > 100 µM
BT-549 breast
  GI50: 22.7 µM
  TGI: > 66 µM
CAKI-1 renal
  GI50: 3.33 µM
  TGI: > 27.7 µM
CCRF-CEM leukemia
  GI50: 18.2 µM
  TGI: > 100 µM
COLO 205 colon
  GI50: > 73.4 µM
  TGI: > 100 µM
DU-145 prostate
  GI50: 12.1 µM
  TGI: > 100 µM
EKVX NSCLC
  GI50: 23.3 µM
  TGI: > 80.3 µM
HCC-2998 colon
  GI50: 34 µM
  TGI: > 100 µM
HCT-116 colon
  GI50: 8.55 µM
  TGI: > 64.3 µM
HCT-15 colon
  GI50: 6.75 µM
  TGI: > 100 µM
HL-60(TB) leukemia
  GI50: 14.6 µM
  TGI: > 62.3 µM
HOP-62 NSCLC
  GI50: 27.8 µM
  TGI: > 100 µM
HOP-92 NSCLC
  GI50: 1.79 µM
  TGI: 16.7 µM
HS 578T breast
  GI50: 21.1 µM
  TGI: > 100 µM
HT29 colon
  GI50: 21.6 µM
  TGI: > 91.1 µM
IGROV1 ovarian
  GI50: 12.3 µM
  TGI: > 100 µM
K-562 leukemia
  GI50: 2.77 µM
  TGI: 20 µM
KM12 colon
  GI50: 2.23 µM
  TGI: > 100 µM
LOX IMVI melanoma
  GI50: 10.9 µM
  TGI: > 100 µM
M14 melanoma
  GI50: 6.29 µM
  TGI: > 100 µM
MALME-3M melanoma
  GI50: 9.06 µM
  TGI: 51.1 µM
MCF7 breast
  GI50: 26.2 µM
  TGI: 97.7 µM
MDA-MB-231 breast
  GI50: 8.92 µM
  TGI: > 93.5 µM
MDA-MB-435
  GI50: 6.57 µM
  TGI: > 66.5 µM
MOLT-4 leukemia
  GI50: 9.07 µM
  TGI: > 100 µM
NCI-H226 lung
  GI50: 16.2 µM
  TGI: > 78 µM
NCI-H23 lung
  GI50: 18.4 µM
  TGI: > 100 µM
NCI-H460 lung
  GI50: 13.6 µM
  TGI: > 100 µM
NCI-H522 lung
  GI50: 6.84 µM
  TGI: 26.7 µM
NCI/ADR-RES ovarian
  GI50: 20.5 µM
  TGI: > 100 µM
OVCAR-3 ovarian
  GI50: 19.5 µM
  TGI: 70.6 µM
OVCAR-4 ovarian
  GI50: 10.7 µM
  TGI: > 90 µM
OVCAR-5 ovarian
  GI50: 37.8 µM
  TGI: > 89.6 µM
OVCAR-8 ovarian
  GI50: 9.48 µM
  TGI: > 100 µM
PC-3 prostate
  GI50: 19.5 µM
  TGI: > 95.6 µM
RPMI-8226 leukemia
  GI50: 10.7 µM
  TGI: > 79.3 µM
RXF 393 renal
  GI50: 3.38 µM
  TGI: 41.5 µM
SF-268 CNS
  GI50: 16.8 µM
  TGI: > 100 µM
SF-295 CNS
  GI50: 0.654 µM
  TGI: 12.7 µM
SF-539 CNS
  GI50: 5.85 µM
  TGI: 50.9 µM
SK-MEL-2 melanoma
  GI50: 13.3 µM
  TGI: 49.4 µM
SK-MEL-28 melanoma
  GI50: 22.3 µM
  TGI: > 100 µM
SK-MEL-5 melanoma
  GI50: 11.5 µM
  TGI: > 68.1 µM
SK-OV-3 ovarian
  GI50: 6.06 µM
  TGI: > 80.8 µM
SN12C renal
  GI50: 4.94 µM
  TGI: > 100 µM
SNB-19 CNS
  GI50: 46.4 µM
  TGI: > 100 µM
SNB-75 CNS
  GI50: 5.53 µM
  TGI: 71.1 µM
SR leukemia
  GI50: 8.57 µM
  TGI: > 100 µM
SW-620 colon
  GI50: 34.2 µM
  TGI: > 100 µM
T-47D breast
  GI50: 25.4 µM
  TGI: > 100 µM
TK-10 renal
  GI50: 5.92 µM
  TGI: 19.8 µM
U251 CNS
  GI50: 13.1 µM
  TGI: > 100 µM
UACC-257 melanoma
  GI50: 16.6 µM
  TGI: > 100 µM
UACC-62 melanoma
  GI50: 6.14 µM
  TGI: 42.2 µM
UO-31 renal
  GI50: 4.41 µM
  TGI: > 100 µM

Source: PubChem BioAssay (NCI)
